# Test results as given in patent US6723897B2, “Methods for controlling gibberellin levels” (Monsanto Technology, LLC, priority 1998, dated 2004).
# Columns and labels:
# [1] = tested on: constitutively GA-deficient transgenic dwarf soybeans (line 719); assay: Summary of first two greenhouse experiments, rescue of GA-deficient soybeans; assay type: in vivo, Glycine max; set-up: key: +: transgenic soybeans are rescued; 0: transgenic soybeans are not rescued; conditions: 0.25 mg/ml solution (ethanol-water)
# Procedure: (§1) Compounds are first prepared as 25 mg/ml solutions in ethanol as described above, and then diluted into 40 ml of water to prepare the final 0.25 mg/ml treatment solutions. Visual observations on solubilities (milky, clear, etc.) of the treatment solutions are noted. The treatment solutions are divided into two 20 ml portions, each in 50 ml plastic centrifuge tubes. In addition to treating seeds with solutions containing the test compounds, untreated seeds and seeds imbibed in ethanol-water solution (300 μl ethanol in 30 mls of water) are also included in this experiment as controls. In the latter case, 20 seeds are imbibed in 30 mls of solution for six hours.
# (§2) Two soybean varieties are selected for testing: constitutively GA-deficient transgenic dwarf soybean line 719 (plasmid pMON29801, constitutive FMV promoter/asCPScc; which is a mixture of 719−2 and 719+17), and A3237, the wild-type parent material. […] After imbibition, seeds are removed from the test tubes, placed on wax paper to dry, and planted in bread pans containing farm soil amended with fertilizer at 20 seeds/pan. Seeds are covered with 0.5″ of vermiculite. Pans are transferred to the greenhouse, which had day/night temperatures of 86/68° F. (30/20° C.), and subirrigated. Illumination is at a light intensity of 300-400 μmolm^−2s^−1 photosynthetic photon flux; 16 hours light/8 hours dark. Subsequent waterings are also through sub-irrigation until the test is terminated three weeks later. Observations included the number of dwarf, intermediate, and tall plants; plant height; uniformity of rescue; and any visual effects.
# (§3) All compounds are tested at final concentrations of 0.25, 0.025, and 0.0025 mg/ml except for GA9, which is tested at 0.125, 0.0125, and 0.00125 mg/ml. (The compounds are tested in Experiment I at only one concentration, i.e., 0.25 mg/ml). Test tubes contained […] of ethanol solution per tube. Final volumes are made up to 30 ml with deionized water. After shaking, the treatment solutions (15 ml each) are transferred to each of two 50 ml test tubes. Treatments 1 to 27 are performed on wild-type line A3237; treatments 28 to 54 are performed on constitutively GA-deficient transgenic dwarf soybean line 719 (a mixture of 719−2 and 719+17). Twenty seeds are used in each treatment. Dry seed, ethanol/water-imbibed seed (1% ethanol in water, v/v), and water-imbibed seeds are included as controls. Seeds are imbibed for 6 hours in the test solutions, then planted in bread pans containing Metromix 350 (The Scotts Company, Marysville, Ohio), and covered with 0.5″ Metro-mix. Covered pans are transferred to the greenhouse and subirrigated. Illumination is at a light intensity of 300-400 μmolm^−2s^−1 photosynthetic photon flux; 16 hours light/8 hours dark. Subsequent waterings are also through sub-irrigation until the test is terminated three weeks later. Observations included the number of dwarf, intermediate, and tall plants; plant height; uniformity of rescue; and any visual effects. Digital photographs are also taken.
# [2] = tested on: constitutively GA-deficient transgenic dwarf soybean line 719; assay: Experiment I greenhouse test, seed imbibition, GA-deficient soybean; assay type: in vivo, Glycine max; set-up: Observation on Transgenic Line 719: key: −1: treated plants are shorter as compared to untreated plants; 0: treated plants had the same stature as untreated plants; 1: treated plants are slightly elongated as compared to untreated plants; 2: treated plants are moderately elongated as compared to untreated plants; 3: treated plants are highly elongated as compared to untreated plants; 4: treated plants are extremely elongated as compared to untreated plants; conditions: 0.25 mg/ml; for effect in both the constitutive transgenic dwarf and wild-type soybean lines: imbibition, lines 719 and A3237; for Observation on Transgenic Line 719: seeds imbibed 5 hours
# From the text: Seeds are covered with 0.5″ of vermiculite.
# [3] = tested on: wild-type soybean line A3237; assay: Experiment I greenhouse test, seed imbibition, wild-type soybean; conditions: 0.25 mg/ml; seeds imbibed 5 hours
# Procedure: Compounds are first prepared as 25 mg/ml solutions in ethanol as described above, and then diluted into 40 ml of water to prepare the final 0.25 mg/ml treatment solutions. Visual observations on solubilities (milky, clear, etc.) of the treatment solutions are noted. The treatment solutions are divided into two 20 ml portions, each in 50 ml plastic centrifuge tubes. In addition to treating seeds with solutions containing the test compounds, untreated seeds and seeds imbibed in ethanol-water solution (300 μl ethanol in 30 mls of water) are also included in this experiment as controls. […]
# After imbibition, seeds are removed from the test tubes, placed on wax paper to dry, and planted in bread pans containing farm soil amended with fertilizer at 20 seeds/pan. Seeds are covered with 0.5″ of vermiculite. Pans are transferred to the greenhouse, which had day/night temperatures of 86/68° F. (30/20° C.), and subirrigated. Illumination is at a light intensity of 300-400 μmolm^−2s^−1 photosynthetic photon flux; 16 hours light/8 hours dark. Subsequent waterings are also through sub-irrigation until the test is terminated three weeks later. Observations included the number of dwarf, intermediate, and tall plants; plant height; uniformity of rescue; and any visual effects.
# [4] = Particulate material present in solutions after mixing; assay type: physicochemical; conditions: for Particulate material present, 100X Diln w/water: 0.25 mg/ml compound in water; for solubility in water during imbibition: 0.25 mg/ml treatment solutions; for Particulate material present, Initial Mixing: 25 mg/ml in absolute ethanol
# Procedure: Each of the compounds noted above is weighed to the nearest 0.1 mg in a pre-tarred 1.5-ml polypropylene vial with a screw-top lid. Absolute ethanol is added to the weighed powder to prepare a 25 mg/ml solution. Solutions are thoroughly mixed using a vortex mixer. A stainless steel spatula is used to crush any particulate material remaining after extensive mixing. Vials are left overnight at room temperature, and then remixed to form the concentrated ethanol stock solutions. The presence of undissolved material is noted throughout this procedure.
# wild-type A3237 soybean = assay: Hilum treatment of soybean seeds, seedling growth and development, wild-type soybean; assay type: in vivo, Glycine max; set-up: key to Emergence timing / Hypocotyl length (6 DAP) / 1st internode length (12 DAP) / 3rd internode length (20 DAP): pos: emergence faster/stem segment longer than controls; 0: emergence timing/stem segment length similar to controls; neg: emergence slower/stem segment shorter than controls; conditions: for Lowest rate where biological activity is observed, 1st internode length (10 DAP) / Lowest rate where biological activity is observed, emergence timing / Lowest rate where biological activity is observed, hypocotyl length (5 DAP): rate response; for 1st internode length (12 DAP) / Emergence timing / Hypocotyl length (6 DAP): single rate per compound 8.3-16.5 μg/seed
# Procedure: (§4) In the previous experiments, the effect of various GA compounds on transgenic, GA-deficient and wild-type soybean is evaluated by treating seeds with these compounds via imbibition. Several of these compounds are not completely soluble in water, which limited the interpretation of their utility in rescuing GA-deficient dwarf plants. The purpose of this experiment is to reevaluate selected, previously tested compounds, and additional compounds, by introducing them to the seed via the hilum. As shown by the results presented below, direct application of small quantities of GA compounds dissolved in an organic solvent to the hilum is an effective method of treating soybean seeds. As in the previously described experiments, comparison is made between activity on GA-deficient soybean seedlings and normal (wild-type) seedlings. […] soybean seeds are supplied by Asgrow Seed Company (Des Moines, Iowa). Seed of GA-deficient transgenic soybean line 719 is created by transformation of […] soybean with pMON29801 (FMV/antisense CPScc). Fifth generation seed (R5) is used for these experiments. […] When multiple droplets are applied, each 1 μl droplet is allowed to dry before subsequent droplets are added. Ethanol minus compound is used a treatment control. […] (29° C.) and 75° F. (24° C.), respectively. Emergence timing is measured by counting the number of emerged seedlings at different times after planting. Emergence is defined as the presence of cotyledons raised to soil level or above. […] To assess the ability of a seed treatment to deliver biological activity beyond the first internode, measurements are taken on selected treatments after prolonged growth and development.
# [5] = tested on: GA-deficient transgenic soybean line 719 (R5); assay: Hilum treatment of soybean seeds, seedling growth and development, GA-deficient soybean; assay type: in vivo, Glycine max; set-up: key to Emergence timing / Hypocotyl length (6 DAP) / 1st internode length (12 DAP) / 3rd internode length (20 DAP) / 2nd internode length (12 DAP): pos: emergence faster/stem segment longer than controls; 0: emergence timing/stem segment length similar to controls; neg: emergence slower/stem segment shorter than controls; conditions: for Lowest rate where biological activity is observed, 1st internode length (10 DAP) / Lowest rate where biological activity is observed, emergence timing / Lowest rate where biological activity is observed, hypocotyl length (5 DAP) / 1st internode length (12 DAP) / Emergence timing / Hypocotyl length (6 DAP): L719, hilum treatment; for Lowest rate where biological activity is observed, 1st internode length (10 DAP) / Lowest rate where biological activity is observed, emergence timing / Lowest rate where biological activity is observed, hypocotyl length (5 DAP): rate response; for 1st internode length (12 DAP) / Emergence timing / Hypocotyl length (6 DAP): single rate per compound 8.3-16.5 μg/seed; for activity on line 719 in terms of emergence timing and hypocotyl length: single rate, hilum, concentration that does not affect normal plant tissue
# Procedure: as §4
# [6] = tested on: wild-type soybeans (line A3237); assay: Summary of first two greenhouse experiments, elongation of wild-type soybeans; conditions: 0.25 mg/ml solution (ethanol-water)
# Procedure: as §1, §2, §3
Compound,Rescue of GA-deficient soybeans [1],effect in both the constitutive transgenic dwarf and wild-type soybean lines [2],Observation on Transgenic Line 719 [2],Observation on Wild-Type Line A3237 [3],"Particulate material present, 100X Diln w/water [4]",solubility in water during imbibition [4],"Lowest rate where biological activity is observed, 1st internode length (10 DAP) (wild-type A3237 soybean)","Lowest rate where biological activity is observed, emergence timing (wild-type A3237 soybean)","Lowest rate where biological activity is observed, hypocotyl length (5 DAP) (wild-type A3237 soybean)",1st internode length (12 DAP) (wild-type A3237 soybean),Emergence timing (wild-type A3237 soybean),Hypocotyl length (6 DAP) (wild-type A3237 soybean),"Lowest rate where biological activity is observed, 1st internode length (10 DAP) [5]","Lowest rate where biological activity is observed, emergence timing [5]","Lowest rate where biological activity is observed, hypocotyl length (5 DAP) [5]",1st internode length (12 DAP) [5],Emergence timing [5],Hypocotyl length (6 DAP) [5],activity on line 719 in terms of emergence timing and hypocotyl length [5],"Particulate material present, Initial Mixing [4]",other results
C=C1C[C@]23C[C@H]1CC[C@H]2[C@]1(C)CCC[C@@](C)(C(=O)O)[C@H]1[C@@H]3C=O [GA12-aldehyde],0,no substantial activity,0,0,YES,less soluble in water during imbibition,>100 μg/seed,>100 μg/seed,>100 μg/seed,0,0,0,>100 μg/seed,1 μg/seed,1 μg/seed,0,pos,pos,biologically active,–,–
C=C1C[C@@]23CC[C@@H]4C(C)(C)CCC[C@@]4(C)[C@@H]2CC[C@@H]1C3 [kaurene],0,no substantial activity,0,0,YES,less soluble in water during imbibition,–,–,–,0,0,0,–,–,–,0,pos,0,–,YES,"Particulate material present, O/N Incubation ([4]; 25 mg/ml in ethanol, overnight at room temperature, remixed): YES; Elongation of wild-type soybeans [6]: 0"
"C=C1C[C@@]23CC[C@H]4[C@@](C)(CCC[C@@]4(C)C(=O)O)[C@@H]2CC[C@]1(O)C3 (single isomer, unassigned; ent-7) [steviol]",0,no substantial activity,0,0,YES,less soluble in water during imbibition,>100 μg/seed,>100 μg/seed,>100 μg/seed,0,0,0,>100 μg/seed,10 μg/seed,1 μg/seed,0,pos,pos,biologically active,YES,–
C=C1C[C@]23C[C@H]1CC[C@H]2[C@@]12CC[C@H](O)[C@@](C)(C(=O)O1)[C@H]2[C@@H]3C(=O)OC [GA4 methyl ester],0,slight to medium elongation,1,1,–,less soluble in water during imbibition,–,–,–,–,–,–,–,–,–,–,–,–,–,–,–
C=C1C[C@]23C[C@H]1CC[C@H]2[C@@]12C=C[C@H](O)[C@@](C)(C(=O)O1)[C@H]2[C@@H]3C(=O)OC [GA7 methyl ester],0,slight to medium elongation,2,1,YES,–,–,–,–,–,–,–,–,–,–,–,–,–,–,–,–
